Results on 17 compounds are retold here after patent publication US20050014942A1, “Amide derivatives and drugs” (priority 2001, published 2005).

A short description of data set [1]: Measurement of concentration of compound in rat plasma. The data set is classed as in vivo. The conditions noted are these: oral 10 mg/kg; for concentration at 0.25 h: after 0.25 hours; for concentration at 1 h: after 1 hour; for concentration at 4 h: after 4 hours. The method, then:
Each of the test compounds was dissolved or suspended in methyl cellulose and the resulting solution or suspension was orally administered to rats at a dosage of 10 mg/kg and blood was collected after 0.25 hours, 1 hour and 4 hours. The concentration in plasma in each of the compounds was measured by HPLC.

Data set [2] has as its system collagen production induced by TGF-β (TIG-3 cells). In words: Inhibitory effect on collagen production induced by TGF-β, [3H] proline uptake (TIG-3 cells). The data set is classed as cell-based. The conditions noted are these: Homo sapiens, TGF-β1 3 ng/ml. The method, then: (§1) As an index of collagen production, the uptake of [^3H] proline was measured.
(§2) Using a 96-well microplate, normal human skin derived fibroblast (NHDF, 10^4/well) or human embryonic lung fibroblast (TIG-3, 10^4/well) were cultured in a 10% fetal calf serum (FCS)-containing Dulbecco's modified Eagle medium (DMEM) for one day. After removing the culture supernatant, the cells were washed once with a 0.1% bovine serum albumin (BSA)-containing DMEM medium and then cultured in the 0.1% bovine serum albumin (BSA)-containing DMEM medium for one day. After adding each of the test compounds in each concentration (1, 3, 10 μM), the cells were cultured and, after adding TGF-β1 (3 ng/ml) and [^3H] proline (18.5 kBq/well), the cells were further cultured for additional one day.
(§3) After removing the culture supernatant, the cells were washed twice with a phosphate buffer solution (PBS) and dissolved with 0.3M NaOH and 1% sodium dodecylsulfate (SDS), and then each protein fraction was precipitated with trichloroacetic acid (TCA) After the precipitate was filtered through a glass filter (GF/B) and washed, the quantity of [^3H] proline on the glass filter was measured by a liquid scintillation counter. The number of cells was measured by a cell growth measuring kit (XTT, Roche) and the uptake of [^3H] proline was corrected by the number of cells. Inhibitory ratio was calculated as compared with the case where a difference between the uptake of [^3H] proline with or without TGF-β1.

Data set [3] concerns collagen production induced by TGF-β (NHDF cells). The data set can be described thus: Inhibitory effect on collagen production induced by TGF-β, [3H] proline uptake (NHDF cells). The data set is classed as cell-based, human. The following applies: Homo sapiens, NHDF, TGF-β1 3 ng/ml. The method, then:
as §1, §2, §3

The next data set relates to mice. The data set can be described thus: Acute toxicity. The data set is classed as in vivo. The conditions noted are these: oral 1000 mg/kg, observed for a week after administration. As to the method:
Each of the compounds in Examples 1, 9, 31, 120, and 121 was administered.

Counter-ions that a name gives are not always drawn.

Usually inhibition stands for the drop in the measured response relative to a control, in per cent.

In data set [1], `Cc1ccc2c(c1)c(C(=O)N1CCN(c3ccccn3)CC1)c(-c1ccccc1)n2C` [Compound A, 1-(1,5-dimethyl-2-phenylindol-3-ylcarbonyl)-4-(2-pyridyl)piperazine hydrochloride, reference compound] gave a concentration at 0.25 h of 0 to 69 ng/mL, a concentration at 1 h of 55 to 120 ng/mL and a concentration at 4 h of 5 to 18 ng/mL. Besides, in data set [2], the inhibition at 3 µM was found to be 28% and the inhibition at 10 µM was found to be 63%. In data set [3], the inhibition at 1 µM turned out to be 8%, the inhibition at 3 µM was determined as 9% and the inhibition at 10 µM was 30%.
Turning to `COc1ccc(CNC(=O)/C=C/c2c(-c3ccccc3)n(C)c3ccccc23)cc1` [Example 2, (2E)-N-(4-methoxybenzyl)-3-(1-methyl-2-phenyl-1H-indol-3-yl)acrylamide], in data set [2], the inhibition at 3 µM stood at 74% and the inhibition at 10 µM came to 117%. Besides, in data set [3], the inhibition at 1 µM was 23%, the inhibition at 3 µM stood at 61% and the inhibition at 10 µM amounted to 79%.
`COc1cc2c(cc1OC)C(C)N(C(=O)/C=C/c1c(-c3ccccc3)n(C)c3ncccc13)CC2` (centres unmarked) [Example 3, 6,7-dimethoxy-1-methyl-2-[(2E)-3-(1-methyl-2-phenyl-1H-pyrrolo[2,3-b]pyridin-3-yl)prop-2-enoyl]-1,2,3,4-tetrahydroisoquinoline hydrochloride]: in data set [1], the concentration at 0.25 h was 120 to 660 ng/mL, the concentration at 1 h lay within 370 to 640 ng/mL and the concentration at 4 h lay within 260 to 310 ng/mL. In data set [3], the inhibition at 1 µM amounted to 65%, the inhibition at 3 µM was 105% and the inhibition at 10 µM was found to be 143%.
In data set [1], `CO[C@H]1Cc2ccccc2[C@H]1NC(=O)/C=C/c1c(-c2ccccc2)n(C)c2ncccc12` [Example 4, (2E)-N-[(1R,2S)-2-methoxy-2,3-dihydro-1H-inden-1-yl]-3-(1-methyl-2-phenyl-1H-pyrrolo[2,3-b]pyridin-3-yl)acrylamide hydrochloride] displayed a concentration at 0.25 h of 390 to 500 ng/mL, a concentration at 1 h of 490 to 590 ng/mL and a concentration at 4 h of 180 to 290 ng/mL. Moreover, in data set [3], the inhibition at 1 µM came to 41%, the inhibition at 3 µM turned out to be 70% and the inhibition at 10 µM is 138%.
In data set [1], `Cc1ccc2c(c1)c(C(=O)N1CCN(c3cnc(C(=O)NCCc4scnc4C)cn3)CC1)c(-c1ccccc1)n2C` [Example 5, 5-{4-[(1,5-dimethyl-2-phenyl-1H-indol-3-yl)carbonyl]piperazin-1-yl}-N-[2-(4-methyl-1,3-thiazol-5-yl)ethyl]pyrazine-2-carboxamide trihydrochloride] came in with a concentration at 0.25 h of 1400 to 2300 ng/mL, a concentration at 1 h of 520 to 720 ng/mL and a concentration at 4 h of 87 to 160 ng/mL. Further, in data set [3], the inhibition at 1 µM was 40%, the inhibition at 3 µM was found to be 43% and the inhibition at 10 µM came to 88%.
Take `Cc1ccc2c(c1)c(C(=O)N1CCN(c3cnc(C(=O)NCc4ccco4)cn3)CC1)c(-c1ccccc1)n2C` [Example 15, 5-{4-[(1,5-dimethyl-2-phenyl-1H-indol-3-yl)carbonyl]piperazin-1-yl}-N-(2-furylmethyl)pyrazine-2-carboxamide]: in data set [2], the inhibition at 3 µM was 82% and the inhibition at 10 µM was found to be 140%.
Consider `Cc1ccc2c(c1)c(C(=O)N1CCN(c3ccc(-c4nnn(C)n4)cn3)CC1)c(-c1ccccc1)n2C` [Example 26, 1,5-dimethyl-2-phenyl-3-[{4-[5-(2-methyl-2H-tetrazol-5-yl)pyridin-2-yl]piperazin-1-yl}carbonyl]-1H-indole], for which, in data set [1], the concentration at 0.25 h is 230 to 800 ng/mL, the concentration at 1 h is 130 to 300 ng/mL and the concentration at 4 h was in the range of 0 to 92 ng/mL.
For `Cc1ncsc1CCNC(=O)c1cnc(N2CCN(C(=O)c3c(-c4ccccc4)n(C)c4ncccc34)CC2)cn1` [Example 27, 5-{4-[(1-methyl-2-phenyl-1H-pyrrolo[2,3-b]pyridin-3-yl)carbonyl]piperazin-1-yl}-N-[2-(4-methyl-1,3-thiazol-5-yl)ethyl]pyrazine-2-carboxamide dihydrochloride], in data set [1], the concentration at 0.25 h fell in the range of 2400 to 4100 ng/mL and the concentration at 1 h was 1500 to 1900 ng/mL. Moreover, in data set [3], the inhibition at 1 µM turned out to be 25%, the inhibition at 3 µM stood at 35% and the inhibition at 10 µM is 42%.
In data set [1], `CC1c2cc3c(cc2CCN1C(=O)/C=C/c1c(-c2ccccc2)n(C)c2ncccc12)OCO3` (centres unmarked) [Example 28, 5-methyl-6-[(2E)-3-(1-methyl-2-phenyl-1H-pyrrolo[2,3-b]pyridin-3-yl)prop-2-enoyl]-5,6,7,8-tetrahydro[1,3]dioxolo[4,5-g]isoquinoline hydrochloride] gave a concentration at 0.25 h of 71 to 170 ng/mL, a concentration at 1 h of 400 to 550 ng/mL and a concentration at 4 h of 320 to 460 ng/mL. Moreover, in data set [3], the inhibition at 1 µM stood at 31%, the inhibition at 3 µM is 40% and the inhibition at 10 µM was 92%.
In data set [1], `Cn1c(-c2ccccc2)c(/C=C/C(=O)N2CCC(n3c(=O)[nH]c4ccccc43)CC2)c2cccnc21` [Example 29, 1-{1-[(2E)-3-(1-methyl-2-phenyl-1H-pyrrolo[2,3-b]pyridin-3-yl)prop-2-enoyl]piperidin-4-yl}-1,3-dihydro-2H-benzimidazol-2-one hydrochloride] registered a concentration at 0.25 h of 330 to 940 ng/mL, a concentration at 1 h of 280 to 1100 ng/mL and a concentration at 4 h of 170 to 710 ng/mL. Besides, in data set [3], the inhibition at 1 µM came to 64%, the inhibition at 3 µM was found to be 72% and the inhibition at 10 µM is 123%.
Consider `Cc1ccc2c(c1)c(C(=O)N1CCN(c3cnc(C(=O)NCc4c(C)noc4C)cn3)CC1)c(-c1ccccc1)n2C` [Example 32, 5-{4-[(1,5-dimethyl-2-phenyl-1H-indol-3-yl)carbonyl]piperazin-1-yl}-N-[(3,5-dimethylisoxazol-4-yl)methyl]pyrazine-2-carboxamide], for which, in data set [2], the inhibition at 3 µM is 62% and the inhibition at 10 µM was 117%.
For `Cc1ccc2c(c1)c(C(=O)N1CCN(c3ccc(C(=O)N(CCO)Cc4ccccc4)cn3)CC1)c(-c1ccccc1)n2C` [Example 60, 6-{4-[(1,5-dimethyl-2-phenyl-1H-indol-3-yl)carbonyl]piperazin-1-yl}-N-(2-hydroxyethyl)-N-benzylnicotinamide hydrochloride] the same measures were 70% and 133%.
For `Cc1ccc2c(c1)c(C(=O)N1CCN(c3cnc(C(=O)NCCc4ccccn4)cn3)CC1)c(-c1ccccc1)n2C` [Example 76, 5-{4-[(1,5-dimethyl-2-phenyl-1H-indol-3-yl)carbonyl]piperazin-1-yl}-N-[2-(2-pyridyl)ethyl]pyrazine-2-carboxamide] the same measures were 78% and 101%.
Taken in the same sequence, the figures for `Cc1ccc2c(c1)c(C(=O)N1CCN(c3cnc(C(=O)NCCc4scnc4C)cn3)CC1)c(-c1ccccc1)n2C` [Example 80, 5-{4-[(1,5-dimethyl-2-phenyl-1H-indol-3-yl)carbonyl]piperazin-1-yl}-N-[2-(4-methyl-1,3-thiazol-5-yl)ethyl]pyrazine-2-carboxamide] were 105% and 149%.
In data set [1], `Cn1c(-c2ccccc2)c(/C=C/C(=O)N2CCc3ccccc3C2)c2cccnc21` [Example 104, 2-[(2E)-3-(1-methyl-2-phenyl-1H-pyrrolo[2,3-b]pyridin-3-yl)prop-2-enoyl]-1,2,3,4-tetrahydroisoquinoline hydrochloride] yielded a concentration at 0.25 h of 14 to 19 ng/mL, a concentration at 1 h of 44 to 71 ng/mL and a concentration at 4 h of 25 to 32 ng/mL.
In data set [1], `Cc1ccc2c(c1)c(C(=O)N1CCN(c3ccc(C(=O)N(C)C)cn3)CC1)c(-c1ccccc1)n2C.Cl` [Example 120, 6-{4-[(1,5-dimethyl-2-phenyl-1H-indol-3-yl)carbonyl]piperazin-1-yl}-N,N-dimethylnicotinamide hydrochloride] showed a concentration at 0.25 h of 6400 to 10000 ng/mL, a concentration at 1 h of 3200 to 5700 ng/mL and a concentration at 4 h of 2500 to 3100 ng/mL. The “Acute toxicity: deaths” value with mice is “no deaths were observed”.
For the compound `CC(=O)Nc1cnc(N2CCN(C(=O)c3c(-c4ccccc4)n(C)c4ccc(C)cc34)CC2)cn1` [Example 121, N-[5-{4-[(1,5-dimethyl-2-phenyl-1H-indol-3-yl)carbonyl]piperazin-1-yl}pyrazin-2-yl]acetamide], in data set [1], the concentration at 0.25 h is 3900 to 5800 ng/mL, the concentration at 1 h lay within 2100 to 5800 ng/mL and the concentration at 4 h lay within 310 to 580 ng/mL. Also, in data set [3], the inhibition at 3 µM was found to be 39% and the inhibition at 10 µM was 54%. The “Acute toxicity: deaths” value with mice was “no deaths were observed”.
